In patent publication US20220281822A1, “PLANT GROWTH REGULATOR AND METHOD FOR PROMOTING PLANT GROWTH” (Kureha Corporation, priority 2019, published 2022):

Key:
Format in all cases: in vivo
[1] = tested on: Arabidopsis thaliana (Col-O); test: Plant height and number of flowers and fruits of Arabidopsis thaliana after treatment via water supply (Example 1); conditions: for Flower and Fruit Ratio / Plant height Ratio: 1 mM, 37th day after seeding, ratio to Comparative Example 2 (distilled water); for Flower and Fruit / Plant height: 50 mL of 1 mM aqueous solution on 21st, 23rd, 25th, 27th days after seeding, measured on 37th day, 25° C.
Description: Arabidopsis thaliana (Col-O) was sown in plastic pots having a width of 65 mm, a depth of 65 mm, and a height of 70 mm, three individuals per pot. Plastic deep dishes each having a diameter of 160 mm and a height of 28 mm were prepared, and three pots were respectively placed therein. As soil, 100 mL of vermiculite, 50 mL of granular soil (JA Granular Kumiai Synthetic Soil No. 3), and 50 mL of vermiculite were placed in each pot in this order.
In a thermostatic chamber set at room temperature of 25° C., the light period was 16 hours and the dark period was 8 hours. The light conditions were set using a fluorescent lamp (PLANT FLEC, 40 W LED fluorescent lamp for plant growth, electric bulb color, available from Nippon Medical and Chemical Instruments Co., Ltd.) so that the light intensity was 5000 lx in the central part under the fluorescent lamp irradiation. Water supply was done from the bottom, and the water level was set at about 5 mm. Ergothioneine treatment was started 4 weeks after seeding. More specifically, on the 21st, 23rd, 25th, and 27th days after seeding, 50 mL of a 1 mM L-(+)-ergothioneine (available from Cayman Chemical) aqueous solution was added instead of water supply.
On the 37th day after seeding, the plant height (cm) and the number of flowers and fruits per Arabidopsis thalianawere measured.
The same operation as in Example 1 was carried out except that L-(+)-ergothioneine in the aqueous solution was replaced with oxidized glutathione (available from Wako Pure Chemical Industries, Ltd.).
The same operation as in Example 1 was carried out except that the L-(+)-ergothioneine aqueous solution was replaced with distilled water.
(§1) The ratio of “grass height” and “flowers and fruits” for Example 1, Comparative Example 1, and Comparative Example 2 to the results of Comparative Example 2 are shown in Table 1 as “Ratio”, respectively. The “seed yield” for Examples 2 to 4 and Comparative Examples 3 to 6 are shown as “Ratio” in Table 2, where the value for Comparative Example 6 is set to 1. The “seed yield” for Examples 5 and 6 and Comparative Examples 7 and 8 are shown as “Ratio” in Table 3, where the value for Comparative Example 8 is set to 1.

[2] = tested on: Arabidopsis thaliana (Col-O); test: Seed yield of Arabidopsis thaliana at different compound concentrations (Examples 2 to 4); conditions: for Seed yield Ratio: 85th day, Comparative Example 6 (distilled water) set to 1; for Seed yield: harvested on 85th day after seeding, 22° C.
Description: One individual Arabidopsis thaliana (Col-O) was sown in a plastic pot having a diameter of 60 mm and a height of 55 mm. Plastic deep dishes each having a diameter of 160 mm and a height of 28 mm were prepared, and six pots were respectively placed therein. As soil, 45 mL of vermiculite, 22.5 mL of granular soil (JA Granular Kumiai Synthetic Soil No. 3), and 22.5 mL of vermiculite were placed in each pot in this order.
The procedure was the same as in Example 1, except that the room temperature was set to 22° C.
On the 85th day after seeding, seeds were harvested, and the seed yield (mg/plant) was measured.
The same operation as in Example 2 was carried out except that the concentration of L-(+)-ergothioneine aqueous solution was set to 0.1 mM.
The same operation as in Example 2 was carried out except that the concentration of L-(+)-ergothioneine aqueous solution was set to 0.01 mM. […]
The same operation as in Example 2 was carried out except that the L-(+)-ergothioneine aqueous solution was replaced with distilled water.
as §1

[3] = tested on: Arabidopsis thaliana (Col-O); test: Seed yield of Arabidopsis thaliana at different times of treatment (Examples 5 and 6); conditions: 1 mM; for Seed yield: harvested on 82nd day, 22° C.; for Seed yield Ratio: 82nd day, Comparative Example 8 (distilled water) set to 1
Description: The same operation as in Example 2 was carried out.
The same operation as in Example 1 was carried out except that the room temperature was set at 22° C. and L-(+)-ergothioneine was added 2 weeks after seeding, more specifically on the 8th, 10th, 12th, and 14th days.
On the 82nd day after seeding, seeds were harvested, and the seed yield (mg/plant) was measured.
The same operation as in Example 5 was carried out except that L-(+)-ergothioneine was added 4 weeks after seeding, more specifically on the 22nd, 24th, 26th, and 28th days.
The same operation as in Example 5 was carried out except that oxidized glutathione was used in place of L-(+)-ergothioneine in the aqueous solution and added 4 weeks after seeding, more specifically on the 22nd, 24th, 26th, and 28th days.
The same operation as in Example 5 was carried out except that the L-(+)-ergothioneine aqueous solution was replaced with distilled water.
as §1

[4] = time of treatment 4 weeks after seeding (22nd, 24th, 26th, 28th days)
[5] = time of treatment 4 weeks after seeding

Molecule | Flower and Fruit Ratio [1] | Plant height Ratio [1] | Flower and Fruit [1] [Number/plant] | Plant height [1] [cm] | Seed yield Ratio ([2]; compound concentration 0.01 mM) | Seed yield ([2]; compound concentration 0.01 mM) [mg/plant] | Seed yield Ratio ([2]; compound concentration 0.1 mM) | Seed yield ([2]; compound concentration 0.1 mM) [mg/plant] | Seed yield Ratio ([2]; compound concentration 1 mM) | Seed yield ([2]; compound concentration 1 mM) [mg/plant] | Seed yield ([3]; time of treatment 2 weeks after seeding (8th, 10th, 12th, 14th days)) [mg/plant] | Seed yield Ratio ([3]; time of treatment 2 weeks after seeding) | Seed yield [3, 4] [mg/plant] | Seed yield Ratio [3, 5]
C[N+](C)(C)[C@@H](Cc1c[nH]c(=S)[nH]1)C(=O)[O-] [L-(+)-ergothioneine] | 1.7 | 1.3 | 26 | 29 | 1.3 | 109 | 1.5 | 130 | 1.7 | 142 | 140 | 2.0 | 114 | 1.7
N[C@@H](CCC(=O)O)C(=O)O [L-glutamic acid, reference compound] | – | – | – | – | – | – | – | – | 1.0 | 90 | – | – | – | –
oxidized glutathione [reference compound] | 1.5 | 1.1 | 22 | 24 | – | – | – | – | 1.2 | 100 | – | – | 92 | 1.3
O=C(O)[C@@H]1CCCN1 [L-proline, reference compound] | – | – | – | – | – | – | – | – | 1.2 | 102 | – | – | – | –
